These results are taken from patent publication US4264498A, “Process for the preparation of 1,3-disubstituted-2-azetidinones from triazines” (Fujisawa Pharmaceutical Co., Ltd., priority 1976, dated 1981).

Values after ≈ are worked out from the molar mass of the structure shown.

What all share (assay type): cell-based
One assay has as its system Pseudomonas aeruginosa. The assay is described as follows: antimicrobial activity (MIC) against Pseudomonas aeruginosa.
The next assay concerns Bacillus subtilis. The assay is described as follows: antimicrobial activity (MIC) against Bacillus subtilis.
Another assay has as its system Staphylococcus aureus. The assay is described as follows: antimicrobial activity (MIC) against Staphylococcus aureus.

Take `O=C(NC1CN(C(C(=O)O)c2ccco2)C1=O)C(=NO)c1ccccc1` (centres unmarked) [Compound H, 2-[3-(2-phenyl-2-hydroxyiminoacetamido)-2-oxo-1-azetidinyl]-2-(2-furyl)acetic acid]: in the assay with Pseudomonas aeruginosa, the minimum inhibitory concentration (MIC) was 60 µg/mL (≈ 168 µM).

Turning to `NC(CCOc1ccc(C(=NO)C(=O)NC2CN(C(C(=O)O)c3cccs3)C2=O)cc1)C(=O)O` (centres unmarked) [Compound G], 4 µg/mL (≈ 8.16 µM) was the least that counted as inhibitory with Pseudomonas aeruginosa (MIC).

In turn, `O=C(O)CN1CC(NC(=O)Cc2ccccc2)C1=O` (centres unmarked) [Compound A, 2-(3-phenylacetamido-2-oxo-1-azetidinyl)acetic acid] had a minimum inhibitory concentration (MIC) against Bacillus subtilis of 250 µg/mL (≈ 953 µM).

`O=C(NC1CN(C(C(=O)O)c2cccc3ccccc23)C1=O)C(=NO)c1ccccc1` (centres unmarked) [Compound E, 2-[3-(2-phenyl-2-hydroxyiminoacetamido)-2-oxo-1-azetidinyl]-2-(1-naphthyl)acetic acid] had an MIC in the assay on Staphylococcus aureus of 60 µg/mL (≈ 144 µM).

With `O=C(NC1CN(C(Cc2ccc(O)cc2)C(=O)O)C1=O)C(=NO)c1ccccc1` (centres unmarked) [Compound F, 2-[3-(2-phenyl-2-hydroxyiminoacetamido)-2-oxo-1-azetidinyl]-3-(4-hydroxyphenyl)propionic acid], the minimal inhibitory concentration (MIC) with Staphylococcus aureus was determined as 250 µg/mL (≈ 629 µM). This MIC lies about 4.2-fold higher than the previous one.

In the assay with Pseudomonas aeruginosa, `NC(CCOc1ccc(C(=NO)C(=O)NC2CN(C(C(=O)O)c3ccccc3)C2=O)cc1)C(=O)O` (centres unmarked) [Compound B, 2-[3-[2-{4-(3-amino-3-carboxypropoxy)phenyl}-2-hydroxyiminoacetamido]-2-oxo-1-azetidinyl]-2-phenylacetic acid] gave a minimal inhibitory concentration (MIC) of 4 µg/mL (≈ 8.26 µM).

`NC(CCOc1ccc(C(=NO)C(=O)NC2CN(C(C(=O)O)c3ccc(O)cc3)C2=O)cc1)C(=O)O` (centres unmarked) [Compound C, 2-[3-[2-{4-(3-amino-3-carboxypropoxy)phenyl}-2-hydroxyiminoacetamido]-2-oxo-1-azetidinyl]-2-(4-hydroxyphenyl)acetic acid]: in the assay with Pseudomonas aeruginosa, inhibition of growth (MIC) required 2.5 µg/mL (≈ 5 µM).

`O=C(NC1CN(C(CSc2ccccc2)C(=O)O)C1=O)C(=NO)c1ccccc1` (centres unmarked) [Compound D, 2-[3-(2-phenyl-2-hydroxyiminoacetamido)-2-oxo-1-azetidinyl]-3-phenylthiopropionic acid] came in with an MIC against Staphylococcus aureus of 250 µg/mL (≈ 605 µM).

The MIC is the smallest concentration in the dilution series that meets the test's criterion for growth inhibition. Read a high MIC as a need for much substance.
